In US20240116985A1, “STAPLED PEPTIDES AND METHODS THEREOF” (priority 2020, published 2024):
Values after ≈ are worked out from the molar mass of the structure shown. Like-named read-outs stand apart in the source and are kept apart here.

What was measured:
CHI Log D procedure = assay type: physicochemical; settings: for CHI Log D: pH 7.4
Solubility in PBS = assay type: physicochemical
Procedure, shortened: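 HPLC quantitation of peptide remaining in the PBS supernatant after ultracentrifugation, referenced to a 50 μM solution in DMSO.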

[1] = biological target: T1, full-length beta-Catenin (Uniprot ID P35222) (Homo sapiens, UniProt P35222); assay: Fluorescence polarization IC50 (beta-catenin / 5FAM-TCF4 10-53 competition); assay type: binding; settings: read-out: beta-Catenin FP IC50
T1 construct: 10 nM full-length beta-Catenin (Uniprot ID P35222)
T1 sequence (P35222 1-781): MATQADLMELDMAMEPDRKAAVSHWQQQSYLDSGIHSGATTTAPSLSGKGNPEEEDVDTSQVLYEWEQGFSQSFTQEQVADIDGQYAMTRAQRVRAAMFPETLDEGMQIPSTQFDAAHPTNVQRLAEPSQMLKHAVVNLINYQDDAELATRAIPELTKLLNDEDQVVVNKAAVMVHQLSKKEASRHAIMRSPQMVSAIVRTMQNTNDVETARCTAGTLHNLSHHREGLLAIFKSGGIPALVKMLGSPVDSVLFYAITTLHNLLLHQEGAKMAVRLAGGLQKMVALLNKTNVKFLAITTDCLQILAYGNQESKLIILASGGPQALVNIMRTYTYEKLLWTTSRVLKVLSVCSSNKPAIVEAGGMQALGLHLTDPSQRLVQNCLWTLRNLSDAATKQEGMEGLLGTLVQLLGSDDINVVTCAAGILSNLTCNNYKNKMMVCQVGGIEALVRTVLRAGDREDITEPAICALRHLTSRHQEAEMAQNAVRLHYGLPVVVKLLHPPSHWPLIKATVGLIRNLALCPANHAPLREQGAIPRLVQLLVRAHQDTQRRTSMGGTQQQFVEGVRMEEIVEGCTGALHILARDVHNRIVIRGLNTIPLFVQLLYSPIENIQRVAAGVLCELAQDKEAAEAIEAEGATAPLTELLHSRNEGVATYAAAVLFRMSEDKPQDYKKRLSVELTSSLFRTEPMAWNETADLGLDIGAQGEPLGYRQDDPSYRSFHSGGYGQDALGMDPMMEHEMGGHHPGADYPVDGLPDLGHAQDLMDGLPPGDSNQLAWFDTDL

[2] = biological target: T2, beta-catenin/TCF4 engagement (Homo sapiens, UniProt P35222); assay: Nano-BRET target engagement assay (B-cat-Halo & TCF4-Luc in HEK293 cells); assay type: cell-based; settings: absolute IC50; read-out: NanoBRET Abs IC50
T2 construct: expressed in transfected cells; host or cells: HEK293
T2 sequence (P35222 1-781): T1 sequence (P35222 1-781)

Compound | Solubility (Solubility in PBS) [µM] | CHI Log D (CHI Log D procedure) | further results
CC(=O)N1CCC[C@]12CC=CCCCC1(CCCC=CCCCCCC[C@@](C)(C(=O)N[C@@H](Cc3ccc(C(N)=O)cc3)C(=O)N[C@@H](Cc3csc4ccccc34)C(=O)N[C@@H](CCC(N)=O)C(N)=O)NC(=O)[C@H](C(C)C)NC(=O)[C@H](Cc3ccccc3)NC(=O)[C@H](C)NC(=O)[C@H](C)NC(=O)[C@H](CC(=O)O)NC(=O)[C@H](CC(=O)O)NC1=O)NC(=O)[C@H](C)NC(=O)[C@H](CC(=O)O)NC2=O (stereo partly drawn) [I-337, Ac-PL3-Asp-Ala-B5-Asp-Asp-Ala-Ala-Phe-Val-S8-4CBMF-BztA-Gln-NH2] | 48 (≈ 88.4 µg/mL) | 1.579 | –
CC(=O)N1CCC[C@]12CC=CCCCC1(CCCC=CCCCCCC[C@@](C)(C(=O)N[C@@H](Cc3ccc(C(=O)O)cc3)C(=O)N[C@@H](Cc3csc4ccccc34)C(=O)N[C@@H](CCC(N)=O)C(N)=O)NC(=O)[C@H](C(C)C)NC(=O)[C@H](Cc3ccccc3)NC(=O)[C@H](C)NC(=O)[C@H](C)NC(=O)[C@H](CC(=O)O)NC(=O)[C@H](CC(=O)O)NC1=O)NC(=O)[C@H](C)NC(=O)[C@H](CC(=O)O)NC2=O (stereo partly drawn) [I-339, Ac-PL3-Asp-Ala-B5-Asp-Asp-Ala-Ala-Phe-Val-S8-4COOHF-BztA-Gln-NH2] | 50 (≈ 92.1 µg/mL) | 1.328 | –
CC(=O)N1CCC[C@]12CC=CCCCC1(CCCC=CCCCCCC[C@@](C)(C(=O)N[C@@H](Cc3ccccc3)C(=O)N[C@@H](Cc3c[nH]c4ccccc34)C(=O)N[C@@H](CCC(N)=O)C(N)=O)NC(=O)[C@H](C(C)C)NC(=O)[C@H](Cc3cn(C)cn3)NC(=O)[C@H](C)NC(=O)[C@H](C)NC(=O)[C@H](CC(=O)O)NC(=O)[C@H](CC(=O)O)NC1=O)NC(=O)[C@H](C)NC(=O)[C@H](CC(=O)O)NC2=O (stereo partly drawn) [I-329, Ac-PL3-Asp-Ala-B5-Asp-Asp-Ala-Ala-1meH-Val-S8-Phe-Trp-Gln-NH2] | 41 (≈ 73.2 µg/mL) | 2.01 | –
C=CC(=O)NC[C@H](NC(=O)[C@]1(C)CCCCCCC=CCCCC2(CCCC=CC[C@]3(CCCN3C(C)=O)C(=O)N[C@@H](CC(=O)O)C(=O)N[C@@H]([C@@H](C)CC)C(=O)N2)C(=O)N[C@@H](CC(=O)O)C(=O)N[C@@H](CC(=O)O)C(=O)N[C@@H](C)C(=O)N[C@@H](C)C(=O)N[C@@H](Cc2ccccc2)C(=O)N[C@@H](CCC(N)=O)C(=O)N1)C(=O)N[C@@H](Cc1csc2ccccc12)C(=O)N[C@@H](CCC(N)=O)C(N)=O (stereo partly drawn) [I-483, Ac-PL3-Asp-Ile-B5-Asp-Asp-Ala-Ala-Phe-Gln-S8-[Acryl]Dap-BztA-Gln-NH2] | 43 (≈ 80.1 µg/mL) | 1.845 | –
CC(=O)N1CCC[C@]12CC=CCCCC1(CCCC=CCCCOC(=O)N3CC[C@@](C(=O)N[C@@H](Cc4ccsc4)C(=O)N[C@@H](Cc4csc5ccccc45)C(=O)N[C@@H](CCC(N)=O)C(N)=O)(C3)NC(=O)[C@H](CC(N)=O)NC(=O)[C@H](Cc3ccccc3)NC(=O)[C@H](C)NC(=O)[C@H](CCCCNC(=O)c3ccc(-n4cc(CNC(=O)c5ccc6c(c5)C5(OC6=O)c6ccc(O)cc6Oc6cc(O)ccc65)nn4)cc3)NC(=O)[C@H](CC(C)C)NC(=O)[C@H](CC(=O)O)NC1=O)NC(=O)[C@H](CC(C)(C)C)NC(=O)[C@H](CC(=O)O)NC2=O (stereo partly drawn) [I-867, Ac-PL3-Asp-Npg-B5-Asp-Leu-[FAM6Ppg][p1TB]Lys-Ala-Phe-Asn-PyrS2-3Thi-BztA-Gln-NH2] | – | – | logD (CHI Log D procedure; pH 7.4, CHI Log D): 1.8; Solubility (Solubility in PBS; Solubility (uM)): 13 µM (≈ 32.9 µg/mL)
CC(=O)N1CCC[C@]12CC=CCCCC1(CCCC=CCCCCCC[C@@](C)(C(=O)N[C@@H](CC(N)=O)C(=O)N[C@@H](Cc3c[nH]c4ccccc34)C(=O)N[C@@H](CCC(N)=O)C(N)=O)NC(=O)[C@H](C(C)C)NC(=O)[C@H](Cc3ccccc3)NC(=O)[C@H](C)NC(=O)[C@H](C)NC(=O)[C@H](CC(=O)O)NC(=O)[C@H](CC(=O)O)NC1=O)NC(=O)[C@H](C)NC(=O)[C@H](CC(=O)O)NC2=O (stereo partly drawn) [I-284, Ac-PL3-Asp-Ala-B5-Asp-Asp-Ala-Ala-Phe-Val-S8-Asn-Trp-Gln-NH2] | – | – | chromatographic logD (CHI Log D procedure; pH 7.4, CHI Log D): 1.52; Solubility (Solubility in PBS; Solubility (uM)): 40 µM (≈ 69.9 µg/mL)
CC(=O)N1CCC[C@]12CC=CCCCC1(CCCC=CCCCCCC[C@@](C)(C(=O)N[C@@H](Cc3cccc(F)c3F)C(=O)N[C@@H](Cc3csc4ccccc34)C(=O)N[C@@H](CCC(N)=O)C(N)=O)NC(=O)[C@H](C(C)C)NC(=O)[C@H](Cc3ccccc3)NC(=O)[C@H](C)NC(=O)[C@H](C)NC(=O)[C@H](CCC(=O)O)NC(=O)[C@H](CC(=O)O)NC1=O)NC(=O)[C@H](C)NC(=O)[C@H](CC(=O)O)NC2=O (stereo partly drawn) [I-388, Ac-PL3-Asp-Ala-B5-Asp-Glu-Ala-Ala-Phe-Val-S8-23FF-BztA-Gln-NH2] | 10 (≈ 18.5 µg/mL) | 2.863 | –
CC(=O)N1CCC[C@]12CC=CCCCC1(CCCC=CCCCCCC[C@@](C)(C(=O)N[C@@H](Cc3ccccc3)C(=O)N[C@@H](Cc3csc4ccccc34)C(=O)N[C@@H](CCC(N)=O)C(N)=O)NC(=O)[C@H](CCC(N)=O)NC(=O)[C@H](Cc3ccccc3)NC(=O)[C@H](C)NC(=O)[C@H](C)NC(=O)[C@H](CCC(=O)O)NC(=O)[C@H](CC(=O)O)NC1=O)NC(=O)[C@H](C)NC(=O)[C@H](Cc1nn[nH]n1)NC2=O (stereo partly drawn) [I-417, Ac-PL3-tetz-Ala-B5-Asp-Glu-Ala-Ala-Phe-Gln-S8-Phe-BztA-Gln-NH2] | 30 (≈ 56 µg/mL) | 2.085 | –
CC(=O)N1CCC[C@]12CC=CCCCC1(CCCC=CCCCOC(=O)N3CC[C@@](C(=O)N[C@@H](Cc4ccccc4Cl)C(=O)N[C@@H](Cc4csc5ccccc45)C(=O)N[C@@H](CCCCNC(C)C)C(N)=O)(C3)NC(=O)[C@H](CC(N)=O)NC(=O)[C@H](Cc3ccccc3)NC(=O)[C@H](C)NC(=O)[C@H](C)NC(=O)[C@H](CC(=O)O)NC(=O)[C@H](CC(=O)O)NC1=O)NC(=O)[C@H](CC(C)(C)C)NC(=O)[C@H](CC(=O)O)NC2=O (stereo partly drawn) [I-1130, Ac-PL3-Asp-Npg-B5-Asp-Asp-Ala-Ala-Phe-Asn-PyrS2-2C1F-BztA-iPrLys-NH2] | – | – | IC50 [1]: 0.006 µM; IC50 [2]: 7.6 µM; Solubility (Solubility in PBS; Solubility (uM)): 15 µM (≈ 29.8 µg/mL)

Now from value to molecule, other results behind:

Solubility (Solubility in PBS) [µM] | CHI Log D (CHI Log D procedure) | Compound | further results
10 (≈ 25.3 µg/mL) | – | CC(=O)N1CCC[C@]12CC=CCCCC1(CCCC=CCCCOC(=O)N3CC[C@@](C(=O)N[C@@H](Cc4ccsc4)C(=O)N[C@@H](Cc4csc5ccccc45)C(=O)N[C@@H](CCC(N)=O)C(N)=O)(C3)NC(=O)[C@H](CC(C)C)NC(=O)[C@H](Cc3ccccc3)NC(=O)[C@H](C)NC(=O)[C@H](CCCCNC(=O)c3ccc(-n4cc(CNC(=O)c5ccc6c(c5)C5(OC6=O)c6ccc(O)cc6Oc6cc(O)ccc65)nn4)cc3)NC(=O)[C@H](CC(C)C)NC(=O)[C@H](CC(=O)O)NC1=O)NC(=O)[C@H](CC(C)(C)C)NC(=O)[C@H](CC(=O)O)NC2=O (stereo partly drawn) [I-868, Ac-PL3-Asp-Npg-B5-Asp-Leu-[FAM6Ppg][p1TB]Lys-Ala-Phe-Leu-PyrS2-3Thi-BztA-Gln-NH2] | logD (CHI Log D procedure; pH 7.4, CHI Log D): 1.88
45 (≈ 83.8 µg/mL) | 1.863 | C=CC(=O)NC[C@H](NC(=O)[C@]1(C)CCCCCCC=CCCCC2(CCCC=CC[C@]3(CCCN3C(C)=O)C(=O)N[C@@H](CC(=O)O)C(=O)N[C@@H]([C@@H](C)CC)C(=O)N2)C(=O)N[C@@H](CC(=O)O)C(=O)N[C@@H](CC(=O)O)C(=O)N[C@@H](C)C(=O)N[C@@H](C)C(=O)N[C@@H](Cc2ccccc2)C(=O)N[C@@H](CCC(N)=O)C(=O)N1)C(=O)N[C@@H](Cc1csc2ccccc12)C(=O)N[C@@H](CCC(N)=O)C(N)=O (stereo partly drawn) [I-484, Ac-PL3-Asp-Ile-B5-Asp-Asp-Ala-Ala-Phe-Gln-S8-[Acryl]Dap-BztA-Gln-NH2] | –
42 (≈ 76.7 µg/mL) | 2.637 | CC(=O)N1CCC[C@]12CC=CCCCC1(CCCC=CCCCCCC[C@@](C)(C(=O)N[C@@H](Cc3ccccc3)C(=O)N[C@@H](Cc3csc4ccccc34)C(=O)N[C@@H](CCC(N)=O)C(N)=O)NC(=O)[C@H](CCC(N)=O)NC(=O)[C@H](Cc3ccccc3)NC(=O)[C@H](C)NC(=O)[C@H](C)NC(=O)[C@H](CCC(=O)O)NC(=O)[C@H](CCO)NC1=O)NC(=O)[C@H](C)NC(=O)[C@H](CC(=O)O)NC2=O (stereo partly drawn) [I-498, Ac-PL3-Asp-Ala-B5-Hse-Glu-Ala-Ala-Phe-Gln-S8-Phe-BztA-Gln-NH2] | –
10 (≈ 20.5 µg/mL) | – | CC(=O)N1CCC[C@]12CC=CCCCC1(CCCC=CCCCOC(=O)N3CC[C@@](C(=O)N[C@@H](Cc4ccccc4Cl)C(=O)N[C@@H](Cc4csc5ccccc45)C(=O)N[C@@H](CCC(N)=O)C(N)=O)(C3)NC(=O)[C@H](Cc3ccccc3C(F)(F)F)NC(=O)[C@H](Cc3ccccc3)NC(=O)[C@H](C)NC(=O)[C@H](C)NC(=O)[C@H](CC(=O)O)NC(=O)[C@H](CC(=O)O)NC1=O)NC(=O)[C@H](CC(C)(C)C)NC(=O)[C@H](CC(=O)O)NC2=O (stereo partly drawn) [I-1367, Ac-PL3-Asp-Npg-B5-Asp-Asp-Ala-Ala-Phe-2F3MeF-PyrS2-2C1F-BztA-Gln-NH2] | IC50 ([1]; fluorescence polarization): 0.031 µM; IC50 [2]: 7.8 µM
